The values below come from article PMC7126595 (Bioorganic & Medicinal Chemistry, 2018).

SMILES strings stand for the structures.

Format in all cases: cell-based
Experiment [1] has as its system varicella-zoster virus (VZV TK+). In words: microbe, parasite or virus in culture. The conditions noted are these: Human alphaherpesvirus 3, HEL, read-out: EC50 (HEL cells) VZV TK+.
The subject of experiment [2] is human cytomegalovirus (HCMV Davis strain). The experiment in a line: Antiviral activity against HCMV Davis in HEL cells. The conditions noted are these: Human betaherpesvirus 5, HEL, read-out: EC50 (HEL cells) HCMV Davis.
The subject of experiment [3] is Sindbis Virus (SINV). In words: Antiviral activity against Sindbis virus in Vero cells. The conditions noted are these: read-out: EC50 (Vero cells) SINV, Vero cells, viral induced cytopathic effect. In general terms: Protection from cytopathic effect is a common read-out in antiviral testing.
The test system of experiment [4] is yellow fever virus (YFV). The experiment in a line: microbe, parasite or virus in culture. Particulars: Vero, read-out: EC50 (Vero cells) YFV.

On to `O=c1[nH]c(=O)n([C@H]2C[C@H](O)[C@@H](CO)O2)cc1/C=C/Br` [Brivudin], for which the concentration for a half-maximal effect (EC50) in experiment [1] came to 0.012 µM. On to `Nc1ccn(C[C@@H](CO)OCP(=O)(O)O)c(=O)n1` [Cidofovir], for which, in experiment [2], the concentration giving a half-maximal response (EC50) came out at 0.76 µM. For `C/C(=C\CP(=O)(N[C@@H](C)C(=O)OC(C)C)Oc1cccc2ccccc12)Cn1cc(C)c(=O)[nH]c1=O` (stereo partly drawn) [E-8a, (E)-N^1-(4′-O-(1-Naphthyl)-(isopropyloxy-L-alanine)-phosphinyl-2′-methyl-but-2′-enyl)thymine], in experiment [1], the EC50 was determined as 44.7 µM. As to `COc1c(C)c2c(c(O)c1C/C=C(\C)CCC(=O)O)C(=O)OC2` [Mycophenolic acid], the half-maximal effective concentration (EC50) in experiment [3] and in experiment [4] was 4 µM throughout.

The EC50 is the concentration needed to bring the measured effect to its halfway point.
